Source: patent US8367709B2, “Dipeptide analogs as coagulation factor inhibitors” (priority 2007, dated 2013)
Structures can show the parent of a compound that is named as a salt. Where two headings read alike, the source gives them in different places.

Target: T1, purified human Factor XIa (Homo sapiens, UniProt P03951)
T1 construct: purchased Haematologic Technologies
Test: Factor XIa assay (chromogenic substrate S-2366 hydrolysis, Ki)
Assay type: biochemical
Description: The effectiveness of compounds of the present invention as inhibitors of the coagulation factors XIa, VIIa, IXa, Xa, XIIa, plasma kallikrein or thrombin, can be determined using a relevant purified serine protease, respectively, and an appropriate synthetic substrate. The rate of hydrolysis of the chromogenic or fluorogenic substrate by the relevant serine protease was measured both in the absence and presence of compounds of the present invention. […] A decrease in the rate of absorbance or fluorescence change in the presence of inhibitor is indicative of enzyme inhibition. Such methods are known to one skilled in the art. The results of this assay are expressed as the inhibitory constant, Ki.
Values of Ki were determined by allowing the protease to react with the substrate in the presence of the inhibitor. Reactions were allowed to go for periods of 20-180 minutes (depending on the protease) and the velocities (rate of absorbance or fluorescence change versus time) were measured. The following relationships were used to calculate Ki values:
vs/vo=A+((B−A)/1+((IC50/(I)^n))) and […]

[1] = purified human Factor XIa 75-200 pM, substrate S-2366, 50 mM HEPES pH 7.4, read-out: Factor XIa Ki

T1 sequence (P03951 19-387): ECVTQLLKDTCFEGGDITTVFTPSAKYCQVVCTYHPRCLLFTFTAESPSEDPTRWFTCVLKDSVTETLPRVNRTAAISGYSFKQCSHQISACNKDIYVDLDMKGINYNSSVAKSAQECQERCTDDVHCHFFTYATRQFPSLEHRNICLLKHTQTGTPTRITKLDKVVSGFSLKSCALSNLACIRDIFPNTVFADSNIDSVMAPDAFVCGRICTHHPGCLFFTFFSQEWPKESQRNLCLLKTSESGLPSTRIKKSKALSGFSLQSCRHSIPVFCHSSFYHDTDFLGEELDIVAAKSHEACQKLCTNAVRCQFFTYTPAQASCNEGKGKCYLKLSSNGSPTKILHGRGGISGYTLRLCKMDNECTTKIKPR
T1 sequence (P03951 388-625): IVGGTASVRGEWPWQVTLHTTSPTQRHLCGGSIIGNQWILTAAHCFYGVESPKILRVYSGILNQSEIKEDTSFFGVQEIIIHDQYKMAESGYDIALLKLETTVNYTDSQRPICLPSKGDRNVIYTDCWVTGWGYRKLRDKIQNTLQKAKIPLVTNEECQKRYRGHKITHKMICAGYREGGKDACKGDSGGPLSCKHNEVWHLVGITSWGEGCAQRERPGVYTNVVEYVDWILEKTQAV

| Ki [µM] | Ki [1] [µM] | SMILES |
| --- | --- | --- |
| – | 0.0126 | O=C(/C=C/c1cc(Cl)ccc1-n1cnnn1)N[C@@H](Cc1ccccc1)C(=O)Nc1ccc2[nH]ncc2c1 [Example 30, (E)-3-(5-chloro-2-tetrazol-1-yl-phenyl)-N—[(S)-1-(1H-indazol-5-ylcarbamoyl)-2-phenyl-ethyl]-acrylamide] |
| 0.14 | – | CCOC(=O)Cc1ccc(NC(=O)[C@H](Cc2ccccc2)NC(=O)CCc2cc(Cl)ccc2-n2cnnn2)cc1 [Example 1, (S)-ethyl 2-(4-(2-(3-(5-chloro-2-(1H-tetrazol-1-yl)phenyl)propan-amideo)-3-phenylpropanamido)phenyl)acetate] |
| 9.37 | – | O=C1CNC(=O)c2ccc(C(=O)N[C@@H](Cc3ccccc3)C(=O)NCCc3cc(Cl)ccc3-n3cnnn3)cc2N1 [Example 187, (S)—N-(1-(5-chloro-2-(1H-tetrazol-1-yl)phenethylamino)-1-oxo-3-phenylpropan-2-yl)-2,5-dioxo-2,3,4,5-tetrahydro-1H-benzo[e][1,4]diazepine-8-carboxamide] |
| – | 0.533 | O=C(/C=C/c1cc(Cl)ccc1-n1cnnn1)N[C@@H](Cc1ccccc1)C(=O)Nc1nc2ccc(F)cc2s1 [Example 97, (S,E)-3-(5-chloro-2-(1H-tetrazol-1-yl)phenyl)-N-(1-(6-fluorobenzo[d]thiazol-2-ylamino)-1-oxo-3-phenylpropan-2-yl)acrylamide] |
| – | 0.244 | O=C(/C=C/c1cc(Cl)ccc1-n1cnnn1)N[C@@H](Cc1ccccc1)C(=O)Nc1ccc2c(c1)CCNC2 [Example 53, (E)-3-(5-chloro-2-tetrazol-1-yl-phenyl)-N—[(S)-2-phenyl-1-(1,2,3,4-tetrahydro-isoquinolin-6-ylcarbamoyl)-ethyl]-acrylamide] |
| 7.8 | – | COC(=O)Nc1ccc2c(c1)CCN(C(=O)[C@H](Cc1ccccc1)NC(=O)/C=C/c1cc(Cl)ccc1-n1cnnn1)C2 [Example 127, (S,E)-methyl 2-(2-(3-(5-chloro-2-(1H-tetrazol-1-yl)phenyl)acrylamido)-3-phenylpropanoyl)-1,2,3,4-tetrahydroisoquinolin-6-ylcarbamate] |
| 0.0325 | – | CC(C)(C)SC[C@H](NC(=O)/C=C/c1cc(Cl)ccc1-n1cnnn1)C(=O)Nc1ccc(C(=O)O)cc1 [Example 282, (R,E)-4-(3-(tert-butylthio)-2-(3-(5-chloro-2-(1H-tetrazol-1-yl)phenyl)acrylamido)propanamido)benzoic acid] |

The next lines start with the molecule.

| SMILES | Ki [µM] | Ki [1] [µM] |
| --- | --- | --- |
| NCc1ccc(Cl)cc1/C=C/C(=O)N[C@@H](Cc1ccccc1)C(=O)Nc1ccc(C(=O)O)cc1 [Example 83, (S,E)-4-(2-(3-(2-(aminomethyl)-5-chlorophenyl)acrylamido)-3-phenylpropanamido)benzoic acid, TFA salt] | 0.0639 | – |
| O=C(/C=C/c1cc(Cl)ccc1-n1cnnn1)N[C@@H](CC(=O)NCCN1CCOCC1)C(=O)Nc1ccc(C(=O)O)cc1 [Example 286, (S,E)-4-(2-(3-(5-chloro-2-(1H-tetrazol-1-yl)phenyl)acrylamido)-4-(2-morpholinoethylamino)-4-oxobutanamido)benzoic acid, Trifluoroacetic acid salt] | 0.481 | – |
| O=C(/C=C/c1c(F)ccc(Cl)c1F)N[C@@H](Cc1ccccc1)C(=O)Nc1ccc2cn[nH]c2c1 [Example 57, (E)-3-(3-chloro-2,6-difluoro-phenyl)-N—[(S)-1-(1H-indazol-6-ylcarbamoyl)-2-phenyl-ethyl]-acrylamide] | 3.57 | – |
| O=C1CSc2cc(C(=O)N[C@@H](Cc3ccccc3)C(=O)NCCc3cc(Cl)ccc3-n3cnnn3)ccc2N1 [Example 206, (S)—N-(1-(5-chloro-2-(1H-tetrazol-1-yl)phenethylamino)-1-oxo-3-phenylpropan-2-yl)-3-oxo-3,4-dihydro-2H-benzo[b][1,4]thiazine-7-carboxamide] | 0.0195 | – |
| Nc1nc2ccc(C(=O)N[C@@H](Cc3ccccc3)C(=O)NCCc3cc(Cl)ccc3-n3cnnn3)cc2s1 [Example 204, (S)-2-amino-N-(1-(5-chloro-2-(1H-tetrazol-1-yl)phenethylamino)-1-oxo-3-phenylpropan-2-yl)benzo[d]thiazole-6-carboxamide, TFA salt] | 0.0276 | – |
| COC(=O)c1ccc(NC(=O)[C@H](Cc2ccccc2)NC(=O)/C=C/c2cc(Cl)ccc2-n2cnnn2)nc1 [Example 103, (S,E)-methyl 6-(2-(3-(5-chloro-2-(1H-tetrazol-1-yl)phenyl)acrylamido)-3-phenylpropanamido)nicotinate, TFA salt] | – | 0.112 |
